These compounds were tested on HCT-116 cells (assay: HCT-116 xenograft growth after intratumoral siRNA). Conditions: HCT-116 tumours, 18 days after the injection of siRNA.
Type: in vivo, BALB/c nu/nu nude mice
Experimental: We next examined the effects of TNIK on the growth of human colon cancer cells in vivo (FIG. 2). HCT-116 cells were implanted in the flank of immunodeficient mice. One week after the inoculation, siRNA against TNIK (12 or 13) mixed with atelocollagen (Takeshita, F. et al. Efficient delivery of small interfering RNA to bone-metastatic tumors by using atelocollagen in vivo. Proc Natl Acad Sci USA 102, 12177 (2005)) was injected directly into the tumours (224.5±8.9 mm^3 in size). Three days after the siRNA injection, some tumours were excised and the silencing of TNIK mRNA was confirmed by real-time PCR (FIG. 2b). The volume of xenografts was monitored for 18 days after siRNA injection (FIG. 2a). […] We observed similar regression of established tumours after a single injection of siRNA against TNIK in two other colorectal cancer cell lines, DLD1 and WiDr (FIGS. 3 and 4).
a, HCT-116 cells were inoculated into BALB/c nu/nu nude mice subcutaneously. The developed tumours were not treated, or treated with only atelocollagen, control RNA (X or IX) or siRNA against TNIK (12 or 13). The volume of tumours (n=8 per group) was monitored as indicated. #, P<0.001 (Mann-Whitney U-test); Bars, SE; N.S., not significant. b, mRNA expression of TNIK in tumours injected with siRNA (n=3 per group). c, d, Representative appearance of mice and excised tumours 18 days after the injection of siRNA. Columns indicate the average weight of excised tumours (n=8 per group). $, P<0.005 (Mann-Whitney U-test); Bars, SE.
5×10^6 HCT-116, DLD1 or WiDr cells suspended in 0.1 ml of PBS were subcutaneously inoculated into the flanks of 5-week-old female BALB/c nu/nu nude mice (SLC, Tokyo, Japan). One week later the developed tumours were treated with siRNA together with atelocollagen (AteloGene; KOKEN, Tokyo, Japan) (Takeshita, F. et al. Efficient delivery of small interfering RNA to bone-metastatic tumors by using atelocollagen in vivo. Proc Natl Acad Sci USA 102, 12177 (2005)). The final concentration of siRNA was 30 μM and that of atelocollagen was 0.5%. A 0.2-ml volume of siRNA solution was injected directly into each tumour. Tumour volume was determined as V=A×[…], where A and B represent the largest and smallest dimensions (Bergers, G et al. Effects of angiogenesis inhibitors on multistage carcinogenesis in mice. Science 284, 808 (1999)).

Compound	excised tumours versus not treated, atelocollagen only or control RNA
siRNA against TNIK (12): small interfering RNA against TNIK, sense 5′-CGACAUACCCAGACUGAUAUU-3′, synthesized by Dharmacon (antisense UAUCAGUCUGGGUAUGUCGUU; listed as RNA, chemistry not given here)	significantly smaller
siRNA against TNIK (13): small interfering RNA against TNIK, sense 5′-GACCGAAGCUCUUGGUUACUU-3′, synthesized by Dharmacon (antisense GUAACCAAGAGCUUCGGUCUU; listed as RNA, chemistry not given here)	significantly smaller

Same assay, conditions: HCT-116 tumours, single injection of siRNA with atelocollagen into the tumour, monitored 18 days

Compound	volume of xenografts
siRNA against TNIK (12): small interfering RNA against TNIK, sense 5′-CGACAUACCCAGACUGAUAUU-3′, synthesized by Dharmacon (antisense UAUCAGUCUGGGUAUGUCGUU; listed as RNA, chemistry not given here)	regressed almost completely
siRNA against TNIK (13): small interfering RNA against TNIK, sense 5′-GACCGAAGCUCUUGGUUACUU-3′, synthesized by Dharmacon (antisense GUAACCAAGAGCUUCGGUCUU; listed as RNA, chemistry not given here)	regressed almost completely

What follows are compounds tested against T1, human TNIK (N-terminal segment, TNIK_N) (Homo sapiens, UniProt Q9UKE5) (assay: TNIK kinase assay (mobility shift)). Conditions: 25 μM ATP, 1 h at room temperature.
T1 construct: made in house; host or cells: Sf21 insect cells (baculovirus)
T1 sequence (Q9UKE5 1-314): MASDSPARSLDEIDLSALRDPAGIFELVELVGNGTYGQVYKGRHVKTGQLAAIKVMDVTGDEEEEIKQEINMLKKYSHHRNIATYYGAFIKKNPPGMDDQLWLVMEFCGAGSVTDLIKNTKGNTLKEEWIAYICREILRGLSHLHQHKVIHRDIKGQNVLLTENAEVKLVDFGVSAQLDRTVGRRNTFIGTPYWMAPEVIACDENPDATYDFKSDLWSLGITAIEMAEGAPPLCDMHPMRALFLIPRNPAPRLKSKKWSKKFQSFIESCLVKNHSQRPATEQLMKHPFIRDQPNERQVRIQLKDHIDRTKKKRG
Type: biochemical
Excerpt: A cDNA encoding the N-terminal segment (TNIK_N, residues 1-314) containing the kinase domain of human TNIK (NM_015028.1) was amplified from cDNA mixture synthesized from human tissue (Biochain) by PCR using the following primers: 5′-[…]-3′ ([SEQ ID NO:1]: forward primer, the underlined nucleotides indicates the location of a EheI site); 5′-[…]-3′ ([SEQ ID NO:2]: reverse primer, the underlined nucleotides indicates the location of a NotI site). The cDNA was subcloned into baculovirus transfer vector pFastBac_GSTb that includes protease cleavage site and glutathione S-transferase purification tag (GST-tag). The plasmid was purified and the insertion of the pFastBac_GSTb-TNIK_N was confirmed by DNA sequencing. Then E. coli DH10Bac competent cells were transformed with the plasmid to prepare the recombinant bacmid according to the instructions for the Bac-to-Bac™ baculovirus expression systems (Invitrogen). The Sf9 cells were transfected with the recombinant bacmid containing pFastBac_GSTb-TNIK_N using Cellfectin Reagent (Invitrogen) in SF-900II serum free media (Invitrogen). The viral supernatant was collected from the medium 72 h after transfection. The virus was amplified three times by infecting actively growing Sf9 or Sf21 cells in Grace's insect media (Invitrogen) supplemented with 10% FCS and an antibiotic-antimycotic reagent (Invitrogen) for 72 h at 27° C. in T-flask or roller bottles. The titer of amplified TNIK_N virus was estimated at 2.36×10^8 pfu/ml by using BacPAK™ Baculovirus Rapid Titer kit (Clontech).
Log-phase Sf21 cells (2×10^6 cells/ml) in the Grace's insect media were infected with the recombinant baculovirus at MOI of 3.0 and incubated in roller bottles (250 ml media per bottle) for 72 h at 27° C., after which, the cells were collected by centrifugation, and the cell pellet washed with cold PBS and kept at −80° C. until purification. The following purification procedures were carried out at 4° C. The frozen cells were thawed on ice and lysed in lysis buffer (50 mM Tris-HCl, pH 7.5, 150 mM NaCl, 1% Nonidet P-40, 5 mM DTT, 0.5 mM EDTA, 0.5 mM EGTA) supplemented with 1 mM phenylmethansulfonylfluoride, 2 μg/ml leupeptin, 2 μg/ml aprotinin, 1 mM NaF, 100 μM sodium orthovanadate, and 1 μM cantharidin by sonication. The suspended lysate was cleared by centrifugation at 9000 g for 20 min and the supernatant was incubated for 1 h with glutathione Sepharose beads (GE Healthcare). The beads were suspended in buffer-H (50 mM Tris-HCl, pH 7.5, 1 M NaCl, 1 mM DTT, 0.5 mM EDTA, 0.5 mM EGTA and 0.05% Brij35) and washed with buffer-H followed by buffer-L (50 mM Tris-HCl, pH 7.5, 150 mM NaCl, 1 mM DTT, 0.5 mM EDTA, 0.5 mM EGTA, 0.05% Brij35) in an Econo-pack column (BIO-RAD). The bound TNIK_N was eluted with elution buffer (50 mM Tris-HCl, pH 8.0, 150 mM NaCl, 1 mM DTT, 10% glycerol, 0.5 mM EDTA, 0.5 mM EGTA and 5 mM reduced glutathione). The eluted fractions were collected and determined the protein concentration by Bradford reagent (BIO-RAD). The TNIK_N fractions were pooled and desalted using 10DG column (BIORAD) equilibrated with the storage buffer (50 mM Tris-HCl, pH 7.5, 150 mM NaCl, 1 mM DTT, 10% glycerol, 0.05% Brij35). The purified TNIK_N was characterized by electrophoresis using 4-20% polyacrylamide gels and matrix-assisted laser desorption/ionization reflection time-of-flight (MALDI-TOF) mass spectrometry on a Voyager-DE RP MALDI/TOF (Applied Biosystems). TNIK_N was confirmed by the molecular weight and MASCOT Peptide Mass Fingerprint.
The kinase assays were conducted in a 20 μl volume using 384-well plates (Greiner). The reaction mixture consists of compound or vehicle (1% DMSO), 0.08 ng/μl TNIK_N, 1 μM FITC-labeled substrate peptides, FITC-x-Lys-Tyr-Lys-Thr-Leu-Arg-Gln ([SEQ ID NO.3], x: ε-aminocaproic acid), 20 mM Hepes, pH 7.5, 0.01% Triton X-100, 5 mM MgCl2, 25 μM ATP and 2 mM DTT. As blank, TNIK_N was excluded from the reaction mixture of vehicle (1% DMSO). […]

Compound	IC50 [nM]
COc1ccc(Nc2nc(C(N)=O)c(NC(=O)c3ccc(N4CCC(CO)CC4)cc3)s2)cc1 [Compound A43, 5-{4-[4-(hydroxymethyl)piperidin-1-yl]benzamido}-2-(4-methoxyphenylamino)thiazole-4-carboxamide]	13
COc1ccc(Nc2nc(C(N)=O)c(NC(=O)c3ccc(CN4CCN(C)CC4)cc3)s2)cc1 [Compound A44]	11
COc1ccc(Nc2nc(C(N)=O)c(NC(=O)c3ccc(OCCN4CCCC4)cc3)s2)cc1 [Compound A45, 2-(4-methoxyphenylamino)-5-{4-[2-(pyrrolidin-1-yl)ethoxy]benzamido}thiazole-4-carboxamide]	22
COc1ccc(Nc2nc(C(N)=O)c(NC(=O)c3ccc(OC)cc3)s2)cc1 [Compound A46, 5-(4-methoxybenzamido)-2-(4-methoxyphenyl-amino)thiazole-4-carboxamide]	16
COc1ccc(Nc2nc(C(N)=O)c(NC(=O)c3ccc(NCCc4ccncc4)cc3)s2)cc1 [Compound A55, 2-(4-methoxyphenylamino)-5-{4-[2-(pyridin-4-yl)ethylamino]benzamido}thiazole-4-carboxamide]	10
NC(=O)c1nc(Nc2ccncc2)sc1NC(=O)c1ccc(F)cc1 [Compound A76, 5-(4-fluorobenzamido)-2-(pyridin-4-ylamino) thiazole-4-carboxamide]	7
COc1ccc(Nc2nc(C(N)=O)c(NC(=O)c3ccc(N)c(N)c3)s2)cc1 [Compound A103, 5-(3,4-diaminobenzamido)-2-(4-methoxyphenyl-amino)thiazole-4-carboxamide]	10

The remaining lines, values ahead:

IC50 [nM]	Compound
3	COc1ccc(C(=O)Nc2sc(Nc3ccncc3)nc2C(N)=O)cc1 [Compound A47, 5-(4-methoxybenzamido)-2-(pyridin-4-ylamino) thiazole-4-carboxamide]
6	COc1ccc(Nc2nc(C(N)=O)c(NC(=O)c3ccc(N(S(C)(=O)=O)S(C)(=O)=O)cc3)s2)cc1 [Compound A48, 2-(4-methoxyphenylamino)-5-{4-[N-(methyl-sulfonyl)methylsulfonamido]benzamido} thiazole-4-carboxamide]
5	COc1ccc(Nc2nc(C(N)=O)c(NC(=O)c3ccc(NCCN4CCCCC4)cc3)s2)cc1 [Compound A49, 2-(4-methoxyphenylamino)-5-{4-[2-(piperidin-1-yl)ethylamino]benzamido}thiazole-4-carboxamide]
7	COc1ccc(C(=O)Nc2sc(Nc3cncnc3)nc2C(N)=O)cc1 [Compound A69, 5-(4-methoxybenzamido)-2-(pyrimidin-5-ylamino)thiazole-4-carboxamide]
4	NC(=O)c1nc(Nc2cccnc2)sc1NC(=O)c1ccc(NCCO)cc1 [Compound A72, 5-[4-(2-hydroxyethylamino)benzamido]-2-(pyridin-3-ylamino)thiazole-4-carboxamide]
7	CN1CCN(c2ccc(C(=O)Nc3sc(Nc4cccnc4)nc3C(N)=O)cc2)CC1 [Compound A74, 5-[4-(4-methylpiperazin-1-yl)benzamido]-2-(pyridin-3-ylamino)thiazole-4-carboxamide]
2	NC(=O)c1nc(Nc2cccnc2)sc1NC(=O)c1ccc(NCCc2ccncc2)cc1 [Compound A84, 2-(pyridin-3-ylamino)-5-{4-[2-(pyridin-4-yl)ethyl-amino]benzamido}thiazole-4-carboxamide]
3	COc1ccc(C(=O)Nc2sc(Nc3ccnc(F)c3)nc2C(N)=O)cc1 [Compound A92, 2-(2-fluoropyridin-4-ylamino)-5-(4-methoxy-benzamido)thiazole-4-carboxamide]
6	COc1ccc(C(=O)Nc2sc(Nc3ccc(CO)cc3)nc2C(N)=O)cc1 [Compound A102, 2-[4-(hydroxymethyl)phenylamino]-5-(4-methoxy-benzamido)thiazole-4-carboxamide]
